In the CheMixHub viscosity set:

Assay: xn = mol fraction of the nth substance listed

CCCCCCO + CCCCCC
Details	viscosity [mPa·s]
293.15 K, 100 kPa, x1 = 0.0277	0.3397
293.15 K, 100 kPa, x1 = 0.05	0.3453
293.15 K, 100 kPa, x1 = 0.1	0.3793
293.15 K, 100 kPa, x1 = 0.1976	0.4607
293.15 K, 100 kPa, x1 = 0.2999	0.5855
293.15 K, 100 kPa, x1 = 0.3999	0.7701
293.15 K, 100 kPa, x1 = 0.5	1.068
293.15 K, 100 kPa, x1 = 0.6002	1.481
293.15 K, 100 kPa, x1 = 0.7	1.971
293.15 K, 100 kPa, x1 = 0.8	2.71
293.15 K, 100 kPa, x1 = 0.9096	3.927
298.15 K, 100 kPa, x1 = 0.0277	0.3247
298.15 K, 100 kPa, x1 = 0.05	0.329
298.15 K, 100 kPa, x1 = 0.1	0.3597
298.15 K, 100 kPa, x1 = 0.1976	0.433
298.15 K, 100 kPa, x1 = 0.2999	0.5506
298.15 K, 100 kPa, x1 = 0.3999	0.7084
298.15 K, 100 kPa, x1 = 0.5	0.9696
298.15 K, 100 kPa, x1 = 0.6002	1.328
298.15 K, 100 kPa, x1 = 0.7	1.765
298.15 K, 100 kPa, x1 = 0.8	2.381
298.15 K, 100 kPa, x1 = 0.9096	3.398
298.15 K, 101.33 kPa, x2 = 0.1327	3.088
298.15 K, 101.33 kPa, x2 = 0.1854	2.578
298.15 K, 101.33 kPa, x2 = 0.2308	2.207
298.15 K, 101.33 kPa, x2 = 0.3137	1.632
298.15 K, 101.33 kPa, x2 = 0.4404	1.072
298.15 K, 101.33 kPa, x2 = 0.4841	0.941
298.15 K, 101.33 kPa, x2 = 0.6117	0.648
298.15 K, 101.33 kPa, x2 = 0.7122	0.501
298.15 K, 101.33 kPa, x2 = 0.8046	0.408
298.15 K, 101.33 kPa, x2 = 0.8997	0.338
298.15 K, 101.33 kPa, x2 = 0.9493	0.309
303 K, 101.33 kPa, x1 = 0.0995	0.3348
303 K, 101.33 kPa, x1 = 0.1996	0.4052
303 K, 101.33 kPa, x1 = 0.2995	0.5115
303 K, 101.33 kPa, x1 = 0.4012	0.6522
303 K, 101.33 kPa, x1 = 0.5004	0.8535
303 K, 101.33 kPa, x1 = 0.6	1.167
303 K, 101.33 kPa, x1 = 0.6983	1.608
303 K, 101.33 kPa, x1 = 0.7965	2.139
303 K, 101.33 kPa, x1 = 0.8984	2.867
303.15 K, 100 kPa, x1 = 0.0277	0.3116
303.15 K, 100 kPa, x1 = 0.05	0.3153
303.15 K, 100 kPa, x1 = 0.1	0.343
303.15 K, 100 kPa, x1 = 0.1976	0.4107
303.15 K, 100 kPa, x1 = 0.2999	0.5173
303.15 K, 100 kPa, x1 = 0.3999	0.6524
303.15 K, 100 kPa, x1 = 0.5	0.885
303.15 K, 100 kPa, x1 = 0.6002	1.194
303.15 K, 100 kPa, x1 = 0.7	1.569
303.15 K, 100 kPa, x1 = 0.8	2.091
303.15 K, 100 kPa, x1 = 0.9096	2.945
303.15 K, 101.33 kPa, x2 = 0.0954	2.883
303.15 K, 101.33 kPa, x2 = 0.1918	2.18
303.15 K, 101.33 kPa, x2 = 0.2892	1.6
303.15 K, 101.33 kPa, x2 = 0.3876	1.19
303.15 K, 101.33 kPa, x2 = 0.487	0.8951
303.15 K, 101.33 kPa, x2 = 0.5874	0.6793
303.15 K, 101.33 kPa, x2 = 0.689	0.5301
303.15 K, 101.33 kPa, x2 = 0.7915	0.4188
303.15 K, 101.33 kPa, x2 = 0.8952	0.3557
308.15 K, 100 kPa, x1 = 0.0277	0.2979
308.15 K, 100 kPa, x1 = 0.05	0.3006
308.15 K, 100 kPa, x1 = 0.1	0.3256
308.15 K, 100 kPa, x1 = 0.1976	0.3877
308.15 K, 100 kPa, x1 = 0.2999	0.4855
308.15 K, 100 kPa, x1 = 0.3999	0.6019
308.15 K, 100 kPa, x1 = 0.5	0.8102
308.15 K, 100 kPa, x1 = 0.6002	1.08
308.15 K, 100 kPa, x1 = 0.7	1.406
308.15 K, 100 kPa, x1 = 0.8	1.847
308.15 K, 100 kPa, x1 = 0.9096	2.566
313 K, 101.33 kPa, x1 = 0.0995	0.3081
313 K, 101.33 kPa, x1 = 0.1996	0.3673
313 K, 101.33 kPa, x1 = 0.2995	0.4576
313 K, 101.33 kPa, x1 = 0.4012	0.5618
313 K, 101.33 kPa, x1 = 0.5004	0.725
313 K, 101.33 kPa, x1 = 0.6	0.9609
313 K, 101.33 kPa, x1 = 0.6983	1.287
313 K, 101.33 kPa, x1 = 0.7965	1.673
313 K, 101.33 kPa, x1 = 0.8984	2.185
313.15 K, 100 kPa, x1 = 0.0277	0.2857
313.15 K, 100 kPa, x1 = 0.05	0.2883
313.15 K, 100 kPa, x1 = 0.1	0.3109
313.15 K, 100 kPa, x1 = 0.1976	0.3694
313.15 K, 100 kPa, x1 = 0.2999	0.4503
313.15 K, 100 kPa, x1 = 0.3999	0.555
313.15 K, 100 kPa, x1 = 0.5	0.7462
313.15 K, 100 kPa, x1 = 0.6002	0.9846
313.15 K, 100 kPa, x1 = 0.7	1.272
313.15 K, 100 kPa, x1 = 0.8	1.644
313.15 K, 100 kPa, x1 = 0.9096	2.251
313.15 K, 101.33 kPa, x2 = 0.0954	2.219
313.15 K, 101.33 kPa, x2 = 0.1918	1.71
313.15 K, 101.33 kPa, x2 = 0.2892	1.295
313.15 K, 101.33 kPa, x2 = 0.3876	0.9896
313.15 K, 101.33 kPa, x2 = 0.487	0.7581
313.15 K, 101.33 kPa, x2 = 0.5874	0.5894
313.15 K, 101.33 kPa, x2 = 0.689	0.4749
313.15 K, 101.33 kPa, x2 = 0.7915	0.3791
313.15 K, 101.33 kPa, x2 = 0.8952	0.3285
318.15 K, 100 kPa, x1 = 0.0277	0.2746
318.15 K, 100 kPa, x1 = 0.05	0.2766
318.15 K, 100 kPa, x1 = 0.1	0.297
318.15 K, 100 kPa, x1 = 0.1976	0.3511
318.15 K, 100 kPa, x1 = 0.2999	0.4266
318.15 K, 100 kPa, x1 = 0.3999	0.5178
318.15 K, 100 kPa, x1 = 0.5	0.6859
318.15 K, 100 kPa, x1 = 0.6002	0.8985
318.15 K, 100 kPa, x1 = 0.7	1.155
318.15 K, 100 kPa, x1 = 0.8	1.48
318.15 K, 100 kPa, x1 = 0.9096	1.987
323 K, 101.33 kPa, x1 = 0.0995	0.2787
323 K, 101.33 kPa, x1 = 0.1996	0.3303
323 K, 101.33 kPa, x1 = 0.2995	0.4051
323 K, 101.33 kPa, x1 = 0.4012	0.5023
323 K, 101.33 kPa, x1 = 0.5004	0.6113
323 K, 101.33 kPa, x1 = 0.6	0.7992
323 K, 101.33 kPa, x1 = 0.6983	1.049
323 K, 101.33 kPa, x1 = 0.7965	1.34
323 K, 101.33 kPa, x1 = 0.8984	1.721
323.15 K, 100 kPa, x2 = 0.25	1.211
323.15 K, 101.33 kPa, x2 = 0.0954	1.682
323.15 K, 101.33 kPa, x2 = 0.1918	1.32
323.15 K, 101.33 kPa, x2 = 0.2892	1.02
323.15 K, 101.33 kPa, x2 = 0.3876	0.8098
323.15 K, 101.33 kPa, x2 = 0.487	0.6263
323.15 K, 101.33 kPa, x2 = 0.5874	0.5103
323.15 K, 101.33 kPa, x2 = 0.689	0.404
323.15 K, 101.33 kPa, x2 = 0.7915	0.3396
323.15 K, 101.33 kPa, x2 = 0.8952	0.2844
